# Reference: patent US5140010A, “Stabilized aqueous formulations of thymopentin” (Immunobiology Research Institute, priority 1991, dated 1992)
# Where two headings read alike, the source gives them in different places. No end group written: not given here.
# Key:
# [1] = stabilizing effect of other amino acids upon thymopentin in aqueous formulation
# Method: To the peptide solution is added a sufficient amount of glycine to stabilize the solution.
# [2] = human clinical research, clinical pharmacological result; assay type: in vivo; details: patients
# Method: (§1) In experiments with thymopentin, it was observed that the optimal doses of thymopentin in an injectable aqueous formulation for immunostimulation in laboratory animals was about 1 μg/kg of body weight. For laboratory use, these dosages were prepared immediately prior to use.
# [3] = immunostimulation in laboratory animals, injectable aqueous formulation; assay type: in vivo; details: injectable aqueous formulation prepared immediately prior to use
# Method: as §1
Molecule,stabilizing effect upon thymopentin [1],further results
C[C@H](N)C(=O)O [alanine],do not exert the stabilizing effect,
N=C(N)NCCC[C@H](N)C(=O)O [arginine],do not exert the stabilizing effect,
N[C@@H](CC(=O)O)C(=O)O [aspartic acid],do not exert the stabilizing effect,
N[C@@H](CCC(=O)O)C(=O)O [glutamic acid],,stabilizing effect upon thymopentin ([1]; amino acid in place of glycine): do not exert the stabilizing effect
N[C@@H](Cc1c[nH]cn1)C(=O)O [histidine],do not exert the stabilizing effect,
NCCCC[C@H](N)C(=O)O [lysine],do not exert the stabilizing effect,
O=C(O)[C@@H]1CCCN1 [proline],do not exert the stabilizing effect,
N[C@@H](Cc1c[nH]c2ccccc12)C(=O)O [tryptophan],do not exert the stabilizing effect,
N[C@@H](Cc1ccc(O)cc1)C(=O)O [tyrosine],do not exert the stabilizing effect,
RKDVY [thymopentin],,dose required to produce a clinical pharmacological result [2]: ≥ 1 mg/kg body weight; optimal dose for immunostimulation [3]: about 1 μg/kg of body weight
